ChEMBL document CHEMBL1125987, “C8-substituted derivatives of 2-(dipropylamino)tetralin: Palladium-catalyzed synthesis and interactions with 5-HT1A-receptors” (Bioorg Med Chem Lett, 1991)

What was measured:
[1] = target: T1, 5-hydroxytryptamine receptor 1A (Rattus norvegicus) (UniProt P19327); assay: Compound evaluated for inhibiting the binding of [3H]- 8-OH-DPAT to 5-HT1A-receptor from cerebral cortex membranes of rat measured as Hill coefficient; type: tissue-based; details: Membrane
T1 sequence (whole entry): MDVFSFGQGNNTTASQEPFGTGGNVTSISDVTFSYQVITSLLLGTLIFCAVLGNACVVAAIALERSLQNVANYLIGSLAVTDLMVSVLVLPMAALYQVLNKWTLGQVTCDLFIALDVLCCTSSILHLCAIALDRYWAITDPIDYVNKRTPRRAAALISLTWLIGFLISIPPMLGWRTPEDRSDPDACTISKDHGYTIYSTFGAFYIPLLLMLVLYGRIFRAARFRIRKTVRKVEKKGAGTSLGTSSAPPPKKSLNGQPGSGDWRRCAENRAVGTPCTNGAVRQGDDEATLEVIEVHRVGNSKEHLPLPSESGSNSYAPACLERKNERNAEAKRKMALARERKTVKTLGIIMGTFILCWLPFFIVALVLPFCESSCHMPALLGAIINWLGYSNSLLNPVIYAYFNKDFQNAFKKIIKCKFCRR

[2] = target: T2, 5-hydroxytryptamine receptor 1A (Rattus norvegicus, UniProt P19327); assay: (§1) Inhibition of [3H]- 8-OH-DPAT binding to 5-HT1A-receptor from rat cerebral cortex membranes; type: cell membranes, Membrane
T2 sequence (P19327 whole entry): T1 sequence (whole entry)

Rattus norvegicus [3] = assay: Agonism to 5-HT1A receptor was measured by the accumulation of DOPA in striatum of non pretreated rats subcutaneously at 0.32 um/Kg; type: functional
Rattus norvegicus [4] = assay: (§2) In vivo inhibition of L-uM/Kg; type: functional
[5] = target: T1, 5-hydroxytryptamine receptor 1A (Rattus norvegicus); assay: as §1; type: cell membranes; details: Membrane
Rattus norvegicus [6] = assay: Agonism to 5-HT1A receptor was measured by the accumulation of DOPA in limbic region of non pretreated rats subcutaneously at 0.32 um/Kg; type: functional, Limbic system
Rattus norvegicus [7] = assay: as §2; type: functional; remark: listed apart in the source

Row | SMILES | Hill coefficient [1] | Ki [2] | Activity (Rattus norvegicus [3]) | Activity (Rattus norvegicus [4]) | Hill coefficient [5] | Activity (Rattus norvegicus [6]) | Activity (Rattus norvegicus [7])
1 | CCCN(CCC)[C@@H]1CCc2cccc(C(=O)OC)c2C1 | 0.9 | 4.3 nM | – | – | – | – | –
2 | CCCN(CCC)C1CCc2cccc(C(=O)O)c2C1 (racemic) | – | > 300 nM | – | – | – | – | –
3 | CCCN(CCC)[C@H]1CCc2cccc(O)c2C1 | – | – | 1136 ng (g of tissue)-1 | 55.8 ng (g of tissue)-1 | 0.86 | 445 ng (g of tissue)-1 | 112 ng (g of tissue)-1
4 | CCCN(CCC)[C@H]1CCc2ccccc2C1 | – | 56 nM | – | – | 0.83 | – | –
5 | CCCN(CCC)[C@@H]1CCc2ccccc2C1 | – | 17 nM | – | – | 0.85 | – | –
6 | CCCN(CCC)[C@H]1CCc2cccc(C)c2C1 | – | 62 nM | – | – | 1.04 | – | –
7 | CCCN(CCC)[C@@H]1CCc2cccc(C)c2C1 | – | 34 nM | – | – | 1.13 | – | –
8 | CCCN(CCC)[C@H]1CCc2cccc(-c3ccccc3)c2C1 | – | 24 nM | – | – | 1.04 | – | –
9 | CCCN(CCC)[C@@H]1CCc2cccc(OS(=O)(=O)C(F)(F)F)c2C1 | – | 3.8 nM | – | – | 0.79 | – | –
10 | CCCN(CCC)[C@H]1CCc2cccc(OS(=O)(=O)C(F)(F)F)c2C1 | – | 9.5 nM | – | – | 0.83 | – | –
11 | CCCN(CCC)[C@H]1CCc2cccc(C(=O)OC)c2C1 | 1.01 | 1.7 nM | – | – | – | – | –
12 | CCCN(CCC)[C@H]1CCc2cccc(OC)c2C1 | – | 2.8 nM | – | – | 0.96 | – | –
13 | CCCN(CCC)[C@@H]1CCc2cccc(C(C)=O)c2C1 | 0.96 | 1.8 nM | 1101 ng (g of tissue)-1 | 62.1 ng (g of tissue)-1 | – | 399 ng (g of tissue)-1 | 111 ng (g of tissue)-1
14 | CCCN(CCC)[C@H]1CCc2cccc(C(C)=O)c2C1 | – | 0.7 nM | 1098 ng (g of tissue)-1 | 58.5 ng (g of tissue)-1 | 0.71 | 365 ng (g of tissue)-1 | 89 ng (g of tissue)-1
15 | CCCN(CCC)[C@@H]1CCc2cccc(O)c2C1 | – | – | 1280 ng (g of tissue)-1 | 51.2 ng (g of tissue)-1 | 0.97 | 414 ng (g of tissue)-1 | 102 ng (g of tissue)-1
16 | CCCN(CCC)[C@@H]1CCc2cccc(OC)c2C1 | – | 1.5 nM | – | – | 1.11 | – | –
17 | CCCN(CCC)[C@@H]1CCc2cccc(-c3ccccc3)c2C1 | – | 7.7 nM | – | – | 1 | – | –
